According to patent US11028078B2 (The Johns Hopkins University, priority 2011, dated 2021):

Key:
VEGFR2 = VEGFR2 glycosylation in HUVEC (Western blot scoring); format: cell-based, human; settings: VEGFR2 hypoglycosylation score in HUVEC, 2 μM, 24 h
Protocol: VEGFR2 hypoglycosylation was scored either robust (++), intermediate (+), or absent (−) (FIG. 6).
HUVEC were seeded at 5×10^4 per well of a 6-well plate in 3 mL of media. After an overnight recovery, the media was replaced with 2 mL fresh media and the analogs were added from 200× stocks in DMSO. Following a 24-h incubation, the media was aspirated and 2×SDS sample buffer was added to the cells which were incubated on ice for 10 min and then boiled for 10 min. […] Following three washes in TBS-T, the membrane was incubated with anti-rabbit horseradish peroxidase conjugated IgG (GE Healthcare) (1:5000-1:10000 dilution) in 1% BSA in TBS-T. The membranes were washed three times in TBS-T, incubated for 1-5 minutes with ECL substrate (Immobilon Wester, Milipore) and visualized (Kodak Image Staion 440 CF).

HUVEC = HUVEC proliferation assay ([3H]thymidine incorporation); format: cell-based, human; settings: HUVEC; for Proliferation (IC50/IC50 Itra): IC50 of analog relative to IC50 of itraconazole
Protocol: The activity of the analogs against HUVEC proliferation, an in vitro proxy for angiogenesis inhibition (Table 3) was analyzed. […]
Pooled HUVEC (Lonza) were grown in EGM-2 bullet kit media (Lonza) and used at passage eight or lower. The proliferation assays were conducted as previously described (Nacev, B.; Low, W. K.; Huang, Z.; Su, T.; Su, Z.; Alkuraya, H.; Kasuga, D.; Sun, W.; Trager, M.; Braun, M.; Fischer, G.; Zhang, K.; Liu, J. O., Acalcineurin-independent mechanism of angiogenesis inhibition by anon-immunosuppressive Cyclosporin Aanalog. J. Pharmacol. Exp. Ther. 2011, DOI:10.1124/jpet.111.18085).

Gli1 transcript = assay: Quantification of Gli1 transcript by TaqMan analysis in MB cells (Hh pathway); format: cell-based, mouse; settings: Gli1 transcript fold induction score; MB cells exposed 24 h at the IC90 for MB proliferation
Excerpt: Inhibitors of the Hh pathway are known to inhibit MB cell proliferation. However, MB cell proliferation is also affected by drugs with targets other than Hh signaling.
Following drug exposure, cells were washed in PBS and pelleted by centrifugation at 300×g. Cell pellets were lysed in Trizol reagent (Invitrogen). Total RNA was separated and collected in the aqueous phase following centrifugation of lysate in the presence of chloroform. Total RNA was ethanol precipitated and purified over RNeasy Mini Kit (Qiagen) filter columns per manufacturer's recommendations. Transcript levels were quantified using gene-specific TaqMan primer/probe sets and the StepOne Plus Real-Time PCR system (Applied Biosystems) on cDNA reverse transcribed using the QuantiTect Reverse Transcription Kit (Qiagen) per manufacturers' recommendations. Results were quantified using StepOne Plus software v2.1 (Applied Biosystems) and were expressed as fold induction relative to control samples using the A ΔCt (2^−ΔΔCt) method with actin as an internal control. The primer/probe set (Applied Biosystems) for TaqMan PCR for mouse Gli-1 was Mm00494645_m1, and for mouse actin was Mm00607939_s1.

[1] = test system: MB cultures derived from Ptch−/+; p53−/− mice; assay: Medulloblastoma (MB) proliferation assay; format: cell-based, mouse; settings: mouse medulloblastoma cultures, 96 h; relative to itraconazole
Excerpt: These cultures were derived from Ptch^−/+; p53^−/− mice that spontaneously develop medulloblastoma associated with ligand independent Hh pathway activation.
MB cultures were derived from mouse Ptch^−/+; p53^−/− MB grown as hind-flank allografts in nude mice (Harlan). Briefly, tumors were mechanically disrupted and made into single cell suspensions by two passages through a 70 μm nylon filter. Cells were pelleted by centrifugation and resuspended in PBS pH 7.4 twice. The cell suspension was then subjected to centrifugation at 1000×g for 25 min over a ficoll gradient. The viable cell layer formed at the ficoll boundary was then collected, suspended in PBS, and pelleted by centrifugation. The resulting pellet was then suspended and cultured as “neurospheres” in Neurobasal Media-A supplemented with retinoic acid deficient B-27 extract (NBMedia). Cells were cultured for three passages, with neurospheres disaggregated using Accumax (Innovative Cell Technologies) between passages.
Cultured MB neurospheres were disaggregated as described and 1×10^4 cells were seeded into wells of a 96-well assay plate in NBMedia and exposed to multiple analogue concentrations: Relative cell numbers following a 96-h incubation were quantified by CellTiter 96® AQueous One Solution Cell Proliferation Assay (Promega) per manufacturer's recommendations using a SpectraMax M2e spectrophotometer and SoftMax Pro software (Molecular Devices). Data was analyzed using Prism5 (GraphPad Software) and IC50 and IC90 values were determined from dose-response curves fitted to mean corrected absorbance normalized to control treatment.

SMILES	Glycosylation (2 μM dose) (VEGFR2)	Proliferation (IC50/IC50 Itra) (HUVEC)	Gli I Inhibition (IC90 Prolif. dose) (Gli1 transcript)	MB Proliferation (IC50/IC50 Itra) [1]	Proliferation (EC50/IC50 Itra) (HUVEC; footnote g: EC50 of analog relative to IC50 of itraconazole)
Cn1ncn(-c2ccc(N3CCN(c4ccc(OC[C@@H]5CO[C@@](Cn6cncn6)(c6ccc(Cl)cc6Cl)O5)cc4)CC3)cc2)c1=O (relative stereo) [Compound 7a, cis-(2S,4R)-4-[4-[4-[4-[[2-(2,4-Dichlorophenyl)-2-(UH-1,2,4-triazol-1-ylmethyl)-1,3-dioxolan-4-yl]methoxy]phenyl]-lpiperazinyl]phenyl]-2,4-dihydro-2-methyl-3H-1,2,4-triazol-3-one]	−	4.00	− (≥0.45)	2.71	
CCC1(Cn2ncn(-c3ccc(N4CCN(c5ccc(OCC6COC(Cn7cncn7)(c7ccc(Cl)cc7Cl)O6)cc5)CC4)cc3)c2=O)COC1 [Compound 7v, cis-(2S,4R)-4-[4-[4-[4-[[2-(2,4-Dichlorophenyl)-2-(1H-1,2,4-triazol-1-ylmethyl)-1,3-dioxolan-4-yl]methoxy]phenyl]-lpiperazinyl]phenyl]-2,4-dihydro-2-((3-ethyloxetan-3-yl)methyl)-3H-1,2,4-triazol-3-one]	++	0.77	+ (0.16 to 0.44)	0.74	
CCC#CCCn1ncn(-c2ccc(N3CCN(c4ccc(OCC5COC(Cn6cncn6)(c6ccc(Cl)cc6Cl)O5)cc4)CC3)cc2)c1=O [Compound 7o, cis-(2S,4R)-4-[4-[4-[4-[[2-(2,4-Dichlorophenyl)-2-(1H-1,2,4-triazol-1-ylmethyl)-1,3-dioxolan-4-yl]methoxy]phenyl]-lpiperazinyl]phenyl]-2,4-dihydro-2-(hex-3-ynyl)-3H-1,2,4-triazol-3-one]	−	1.09	++ (≤0.15)	1.07	
O=c1n(-c2ccc(N3CCN(c4ccc(OCC5COC(Cn6cncn6)(c6ccc(Cl)cc6Cl)O5)cc4)CC3)cc2)cnn1C1CCCCC1 [Compound 7k, cis-(2S,4R)-4-[4-[4-[4-[[2-(2,4-Dichlorophenyl)-2-(1H-1,2,4-triazol-1-ylmethyl)-1.3-dioxolan-4-yl]methoxy]phenyl]-lpiperazinyl]phenyl]-2,4-dihydro-2-(1-cyclohexyl)-3H-1,2,4-triazol-3-one]	++	0.44	− (≥0.45)	0.37	
CC/C=C/CCn1ncn(-c2ccc(N3CCN(c4ccc(OCC5COC(Cn6cncn6)(c6ccc(Cl)cc6Cl)O5)cc4)CC3)cc2)c1=O [Compound 7s, cis-(2S,4R)-4-[4-[4-[4-[[2-(2,4-Dichlorophenyl)-2-(1H-1,2,4-triazol-1-ylmethyl)-1,3-dioxolan-4-yl]methoxy]phenyl]-lpiperazinyl]phenyl]-2,4-dihydro-2-((E)-hex-3-enyl)-3H-1,2,4-triazol-3-one]	−	1.57	++ (≤0.15)	0.63	
CCC(CC)n1ncn(-c2ccc(N3CCN(c4ccc(OCC5COC(Cn6cncn6)(c6ccc(Cl)cc6Cl)O5)cc4)CC3)cc2)c1=O [Compound 7j, cis-(2S,4R)-4-[4-[4-[4-[[2-(2,4-Dichlorophenyl)-2-(1H-1,2,4-triazol-1-ylmethyl)-1,3-dioxolan-4-yl]methoxy]phenyl]-lpiperazinyl]phenyl]-2,4-dihydro-2-(1-ethylpropyl)-3H-1,2,4-triazol-3-one]	+	1.10	++ (≤0.15)	0.54	
[N-]=[N+]=NCCCCCCn1ncn(-c2ccc(N3CCN(c4ccc(OCC5COC(Cn6cncn6)(c6ccc(Cl)cc6Cl)O5)cc4)CC3)cc2)c1=O [Compound 7p, cis-(2S,4R)-4-[4-[4-[4-[[2-(2,4-Dichlorophenyl)-2-(1H-1,2,4-triazol-1-ylmethyl)-1,3-dioxolan-4-yl]methoxy]phenyl]-lpiperazinyl]phenyl]-2,4-dihydro-2-(6-azidohexyl)-3H-1,2,4-triazol-3-one]	+	0.30	+ (0.16 to 0.44)	0.70	
CC(C)CCn1ncn(-c2ccc(N3CCN(c4ccc(OC[C@@H]5CO[C@@](Cn6cncn6)(c6ccc(Cl)cc6Cl)O5)cc4)CC3)cc2)c1=O (relative stereo) [Compound 7i, cis-(2S,4R)-4-[4-[4-[4-[[2-(2,4-Dichlorophenyl)-2-(1H-1,2,4-triazol-1-ylmethyl)-1,3-dioxolan-4-yl]methoxy]phenyl]-lpiperazinyl]phenyl]-2,4-dihydro-2-(3-methylbutyl)-3H-1,2,4-triazol-3-one]	+	1.42	++ (≤0.15)	0.41	
CCCC(C)n1ncn(-c2ccc(N3CCN(c4ccc(OC[C@@H]5CO[C@@](Cn6cncn6)(c6ccc(Cl)cc6Cl)O5)cc4)CC3)cc2)c1=O (relative stereo) [Compound 7h, cis-(2S,4R)-4-[4-[4-[4-[[2-(2,4-Dichlorophenyl)-2-(1H-1,2,4-triazol-1-ylmethyl)-1,3-dioxolan-4-yl]methoxy]phenyl]-lpiperazinyl]phenyl]-2,4-dihydro-2-(1-methylbutyl)-3H-1,2,4-triazol-3-one]	++	0.75	++ (≤0.15)	0.38	
CC1(CCCCCCCn2ncn(-c3ccc(N4CCN(c5ccc(OCC6COC(Cn7cncn7)(c7ccc(Cl)cc7Cl)O6)cc5)CC4)cc3)c2=O)N=N1 [Compound 7x, cis-(2S,4R)-4-[4-[4-[4-[[2-(2,4-Dichlorophenyl)-2-(1H-1,2,4-triazol-1-ylmethyl)-1,3-dioxolan-4-yl]methoxy]phenyl]-lpiperazinyl]phenyl]-2,4-dihydro-2-(7-(3-methyl-3H-diazirin-3-yl)heptyl)-3H-1,2,4-triazol-3-one]	−		− (≥0.45)	1.18	1.1^g
CCCCCn1ncn(-c2ccc(N3CCN(c4ccc(OCC5COC(Cn6cncn6)(c6ccc(Cl)cc6Cl)O5)cc4)CC3)cc2)c1=O [Compound 7g, cis-(2S,4R)-4-[4-[4-[4-[[2-(2,4-Dichlorophenyl)-2-(1H-1,2,4-triazol-1-ylmethyl)-1,3-dioxolan-4-yl]methoxy]phenyl]-lpiperazinyl]phenyl]-2,4-dihydro-2-pentyl-3H-1,2,4-triazol-3-one]	−	1.09	++ (≤0.15)	0.66	
